Results on three compounds are retold here after ChEMBL document CHEMBL1128964, “Synthesis and analgesic activity of Epibatidine analogues” (Bioorg Med Chem Lett, 1996).

The LD50 is the dose at which mortality reaches 50%. A high value points to a less toxic substance.

The source made the active and inactive calls. No cut-off for these calls is given here.

Data set [1] concerns Mus musculus. The experiment in a line: Dose of compound that caused analgesic activity in mice after intraperitoneal administration. The class given is functional.
A short description of data set [2]: Lethal dose determined in Mice. The settings on record: mouse, in vivo. The class given is toxicity.
Data set [3] has as its system Mus musculus. Nature of the data set: Compound was tested for analgesic activity in mice after intraperitoneal administration at a dose of 10 ug/kg; less potent. The class given is functional, organism-based.
The test system of data set [4] is Mus musculus. The experiment in a line: Compound was tested for analgesic activity in mice after intraperitoneal administration at a dose of 10 ug/kg; Significant. The class given is functional, organism-based.

For the compound `Clc1ccc(C2CC3CCCC2N3)cn1` (centres undefined) [HOMOEPIBATIDINE], the Dose in data set [1] was determined as 0.04 mg/kg. For the same compound, the 50% lethal dose (LD50) in data set [2] worked out at 10 mg/kg. Turning to `Clc1ccc(C2CCNC2)cn1` (centres undefined), the Activity result in data set [3] is given as “less potent”. With `Clc1ccc(C2CC3CCC2N3)cn1` (racemic), in data set [4], the outcome was Active.
